Data on 13 compounds can be found in patent US9023857B2, “Substituted 6-(2-aminobenzylamino)purine derivatives, their use as medicaments and preparations containing these compounds” (Univerzita Palackeho V Olomouci, priority 2009, dated 2015).

Read-outs that look alike come from different tables or passages of the source.

The target of one data set is CDK1/cyclin B (Homo sapiens, UniProt P06493). Kind of data set: CDK inhibition assay, CDK1/cyclin B.
The next data set has as its target CDK2/cyclin E (Homo sapiens, UniProt P24941). Briefly: CDK inhibition assay, CDK2/cyclin E.
The next data set addresses CDK9/cyclin T (Homo sapiens, UniProt P50750). Kind of data set: CDK inhibition assay, CDK9/cyclin T.
Data set [1] is described as follows: In vitro cytotoxic activity (Calcein AM, 72 hours), BJ. Particulars: human, BJ normal fibroblasts.
Data set [2] concerns human T-lymphoblastoid leukaemic cell line CEM. Kind of data set: In vitro cytotoxic activity (Calcein AM, 72 hours), CEM. The conditions noted are these: read-out: Cytotoxicity IC50 CEM.
In data set [3] the test system is human osteogenic sarcoma HOS. Briefly: In vitro cytotoxic activity (Calcein AM, 72 hours), HOS. The conditions noted are these: read-out: Cytotoxicity IC50 HOS.
Data set [4] has as its system breast carcinoma MCF7. Briefly: In vitro cytotoxic activity (Calcein AM, 72 hours), MCF7. Particulars: Homo sapiens, MCF7, 72 h, read-out: Cytotoxicity IC50 MCF7.
Data set [5] concerns cervical carcinoma cells HELA. Kind of data set: In vitro cytotoxic activity (Calcein AM, 72 hours), HELA. Particulars: Homo sapiens, read-out: Cytotoxicity IC50 HeLa.
Data set [6] deals with human erythroleukaemia K562. Kind of data set: In vitro cytotoxic activity (Calcein AM, 72 hours), K562. The conditions noted are these: K562, 72 h, read-out: Cytotoxicity IC50 K-562.
Data set [7] has as its system promyelocytic leukemia HL 60. Briefly: In vitro cytotoxic activity (Calcein AM, 72 hours), HL 60. The conditions noted are these: Homo sapiens, HL-60, 72 h, read-out: Cytotoxicity IC50 HL60.
In data set [8] the test system is human malignant melanoma G 361. Briefly: In vitro cytotoxic activity (Calcein AM, 72 hours), G 361. Particulars: G-361, 72 h, read-out: Cytotoxicity IC50 G361.
Data set [9] concerns p53-responsive reporter pRGCΔfoslacZ in human melanoma cell line Arn8. Kind of data set: p53-dependent transcriptional activity, β-galactosidase reporter in Arn8 cells. The conditions noted are these: concentration inducing maximum of β-galactosidase activity (p53-responsive reporter).
Data set [10] relates to human T-lymphoblastoid leukaemic cell line CEM.
The test system of data set [11] is promyelocytic leukemia HL 60.
Data set [12] relates to breast carcinoma MCF7.
For data set [13], the system named is cervical carcinoma cells HELA.
Data set [14] has as its system human erythroleukaemia K562.
The test system of data set [15] is human malignant melanoma G 361.
Data set [16] has as its system human osteogenic sarcoma HOS.
Data set [17] has as its system normal human fibroblasts BJ.
[18] abbreviates: read-out: IC50 CDK9, CDK9/cyclin T, 15 μM ATP, histone substrate.

Sequence of CDK1/cyclin B (P06493 whole entry, species assumed): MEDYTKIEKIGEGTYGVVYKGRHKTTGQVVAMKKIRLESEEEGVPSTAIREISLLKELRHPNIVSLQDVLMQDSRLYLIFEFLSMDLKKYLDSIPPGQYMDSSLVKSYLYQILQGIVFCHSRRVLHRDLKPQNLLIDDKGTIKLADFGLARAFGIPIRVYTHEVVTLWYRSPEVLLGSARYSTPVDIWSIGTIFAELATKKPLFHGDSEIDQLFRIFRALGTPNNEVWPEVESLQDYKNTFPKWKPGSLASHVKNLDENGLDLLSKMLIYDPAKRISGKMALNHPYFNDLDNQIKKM
Sequence of CDK1/cyclin B (P14635 whole entry partner, species assumed): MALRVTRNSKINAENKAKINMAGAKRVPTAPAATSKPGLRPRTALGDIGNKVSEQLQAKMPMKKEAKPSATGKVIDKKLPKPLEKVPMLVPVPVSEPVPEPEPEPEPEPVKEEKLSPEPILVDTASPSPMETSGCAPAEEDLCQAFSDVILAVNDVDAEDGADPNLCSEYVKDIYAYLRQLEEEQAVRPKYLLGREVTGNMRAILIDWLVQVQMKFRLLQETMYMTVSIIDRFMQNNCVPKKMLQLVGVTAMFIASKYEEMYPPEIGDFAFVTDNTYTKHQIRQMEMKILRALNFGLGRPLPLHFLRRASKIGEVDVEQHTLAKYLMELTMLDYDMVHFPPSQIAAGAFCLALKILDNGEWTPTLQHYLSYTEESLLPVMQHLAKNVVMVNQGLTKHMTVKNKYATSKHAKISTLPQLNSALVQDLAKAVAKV
Sequence of CDK9/cyclin T (P50750 whole entry, species assumed): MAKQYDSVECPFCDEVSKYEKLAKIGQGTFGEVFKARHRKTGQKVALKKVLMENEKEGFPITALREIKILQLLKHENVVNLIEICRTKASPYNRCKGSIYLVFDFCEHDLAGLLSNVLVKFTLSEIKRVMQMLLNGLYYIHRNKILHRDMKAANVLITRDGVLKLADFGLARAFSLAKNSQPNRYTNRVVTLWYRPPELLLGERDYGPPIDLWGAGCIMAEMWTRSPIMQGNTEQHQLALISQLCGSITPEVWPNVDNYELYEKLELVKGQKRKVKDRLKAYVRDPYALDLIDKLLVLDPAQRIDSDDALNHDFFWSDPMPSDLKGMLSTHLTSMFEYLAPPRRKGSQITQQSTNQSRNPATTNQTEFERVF
Sequence of CDK9/cyclin T (O60563 whole entry partner, species assumed): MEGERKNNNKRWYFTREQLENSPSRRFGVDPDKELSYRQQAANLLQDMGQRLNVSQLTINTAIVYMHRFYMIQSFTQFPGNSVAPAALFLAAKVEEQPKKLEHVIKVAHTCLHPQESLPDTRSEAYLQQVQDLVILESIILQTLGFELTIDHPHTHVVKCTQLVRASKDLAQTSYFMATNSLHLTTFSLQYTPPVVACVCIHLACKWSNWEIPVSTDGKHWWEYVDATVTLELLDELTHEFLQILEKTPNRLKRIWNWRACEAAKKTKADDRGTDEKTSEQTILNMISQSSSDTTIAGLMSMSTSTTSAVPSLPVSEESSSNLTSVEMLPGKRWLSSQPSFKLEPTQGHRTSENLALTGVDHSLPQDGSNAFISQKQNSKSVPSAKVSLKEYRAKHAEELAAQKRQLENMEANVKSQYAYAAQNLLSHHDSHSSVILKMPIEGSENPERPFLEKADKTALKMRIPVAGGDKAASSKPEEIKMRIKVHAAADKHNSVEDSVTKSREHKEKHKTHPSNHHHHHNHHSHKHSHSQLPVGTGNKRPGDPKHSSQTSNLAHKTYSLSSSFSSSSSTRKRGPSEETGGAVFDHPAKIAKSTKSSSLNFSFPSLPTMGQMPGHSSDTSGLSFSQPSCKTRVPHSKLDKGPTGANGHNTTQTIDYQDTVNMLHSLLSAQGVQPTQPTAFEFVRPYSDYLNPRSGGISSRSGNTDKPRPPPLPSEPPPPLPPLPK

By IC50 is commonly meant the concentration that inhibits the measured activity by half. Consider `CCC(CO)Nc1nc(NCc2cc(Cl)ccc2N)c2ncn(Cc3ccccc3)c2n1` (stereo not shown) [Compound 247], for which the IC50 against CDK1/cyclin B is 0.8 µM; against CDK2/cyclin E it was 0.6 µM; against CDK9/cyclin T, 0.07 µM; in [2] it was 15 µM; in data set [3], 22 µM; in the data set on breast carcinoma MCF7 [4], 14 µM. The IC50 in data set [5] is 19 µM; in [6], 41 µM; in data set [7], 34 µM; in [8] it was 21 µM. Moreover, in data set [1], the IC50 at 72 h was over 167 µM. The “Max. β-Gal. Activtity Conc.” value in data set [9] was 20 µM.

As for `CC(C)C(CO)Nc1nc(NCc2ccccc2)c2ncn(C(C)C)c2n1` (stereo not shown) [Compound A2161], the IC50 in data set [10] was found to be 4.3 µM; in data set [11], 18 µM; with breast carcinoma MCF7 [12], 5.9 µM; in data set [13], 6.5 µM; in data set [14] it was 15.4 µM; in [15], 11.5 µM. Besides, the IC50 in data set [16] was 22 µM; in [17], over 167 µM; at CDK9/cyclin T (setting [18]), 0.5 µM.

For `CC(O)CNc1nc(NCc2ccccc2)c2ncn(C(C)C)c2n1` (stereo not shown) [Compound A216], the half-inhibitory concentration (IC50) in data set [10] was found to be 27 µM; in [11], 59 µM; in the data set with breast carcinoma MCF7 [12], 30.4 µM; in [13], 36 µM; in data set [14], 80 µM; in data set [15] it was 44 µM. Besides, the IC50 in data set [16] was 58 µM; in [17], over 167 µM; at CDK2/cyclin E (read-out: IC50 CDK2, CDK2/cyclin E, 15 μM ATP, histone substrate), 1.5 µM; at CDK9/cyclin T (setting [18]), 1.3 µM.

For the compound `CCC(CO)Nc1nc(NCc2cc(Cl)ccc2N)c2ncn(C3CCCCC3)c2n1` (stereo not shown) [Compound 209], the IC50 is 0.5 µM against CDK1/cyclin B; 0.3 µM at CDK2/cyclin E; 0.04 µM on CDK9/cyclin T; 12 µM in [2]; 18 µM in data set [3]; 11 µM in the data set with breast carcinoma MCF7 [4]. For the same compound, the IC50 is 14 µM in [5], 25 µM in data set [6], 31 µM in [7] and 14 µM in data set [8]. The IC50 at 72 h in data set [1] was over 167 µM. Besides, the “Max. β-Gal. Activtity Conc.” value in data set [9] amounted to 20 µM.

In the case of `Cn1cnc2c(NCc3ccccc3N)nc(NC3CCCCC3N)nc21` (stereo not shown) [Compound 1], the IC50 is 1.1 µM against CDK1/cyclin B; 0.8 µM against CDK2/cyclin E; 0.05 µM on CDK9/cyclin T; 15 µM in data set [2]; 22 µM in data set [3]; 13 µM in the data set with breast carcinoma MCF7 [4]. In addition, the IC50 is 18 µM in data set [5], 46 µM in [6], 31 µM in data set [7] and 22 µM in [8]. In addition, the IC50 at 72 h in data set [1] is over 167 µM. The “Max. β-Gal. Activtity Conc.” value in [9] stood at 34 µM.

For `Nc1ccccc1CNc1nc(NC2CCC(N)CC2)nc2c1ncn2C1CCCCC1` (stereo not shown) [Compound 195], the IC50 is 0.6 µM against CDK1/cyclin B; 0.3 µM against CDK2/cyclin E; 0.05 µM on CDK9/cyclin T; 11 µM in [2]; 22 µM in [3]; 12 µM in the data set with breast carcinoma MCF7 [4]. Besides, the IC50 in [5] was 13 µM; in data set [6], 38 µM; in [7], 24 µM; in data set [8], 14 µM. Besides, in data set [1], the IC50 at 72 h is over 167 µM. Moreover, the “Max. β-Gal. Activtity Conc.” value in data set [9] was found to be 22 µM.

As to `Nc1ccccc1CNc1nc(NC2CCC(N)CC2)nc2c1ncn2Cc1ccccc1` (stereo not shown) [Compound 231], the IC50 against CDK1/cyclin B is 0.8 µM; against CDK2/cyclin E it was 0.5 µM; against CDK9/cyclin T, 0.05 µM; in [2], 12 µM; in data set [3], 23 µM; with breast carcinoma MCF7 [4] it was 15 µM. The IC50 is 16 µM in data set [5], 37 µM in [6], 32 µM in data set [7] and 15 µM in data set [8]. Also, the IC50 at 72 h in [1] was over 167 µM. Also, the “Max. β-Gal. Activtity Conc.” value in [9] came out at 18 µM.

With `CCC(CO)Nc1nc(NCc2ccccc2N)c2ncn(Cc3ccccc3)c2n1` (stereo not shown) [Compound 234], the IC50 at CDK1/cyclin B is 0.7 µM; on CDK2/cyclin E, 0.4 µM; at CDK9/cyclin T it was 0.03 µM; in data set [2] it was 16 µM; in data set [3], 17 µM; in the data set with breast carcinoma MCF7 [4], 11 µM. In addition, the IC50 is 18 µM in data set [5], 25 µM in data set [6], 33 µM in data set [7] and 18 µM in data set [8]. For the same compound, in data set [1], the IC50 at 72 h is over 167 µM. In [9], the “Max. β-Gal. Activtity Conc.” value came out at 24 µM.

`CCCn1cnc2c(NCc3ccccc3N)nc(NC3CCC(N)CC3)nc21` (stereo not shown) [Compound 184]: the IC50 is 0.4 µM against CDK1/cyclin B; 0.2 µM at CDK2/cyclin E; 0.0009 µM on CDK9/cyclin T; 11 µM in [2]; 32 µM in [3]; 8 µM in the data set on breast carcinoma MCF7 [4]. The IC50 in data set [5] was 17 µM; in data set [6], 24 µM; in data set [7] it was 35 µM; in [8] it was 19 µM. The half-inhibitory concentration (IC50) at 72 h in data set [1] was over 167 µM. Besides, the “Max. β-Gal. Activtity Conc.” value in [9] stood at 6 µM.

On to `Cc1cccc(CNc2nc(NC3CCC(N)CC3)nc3c2ncn3C(C)C)c1N` (stereo not shown) [Compound 138], for which the IC50 is 0.1 µM against CDK1/cyclin B; 0.07 µM at CDK2/cyclin E; 0.0006 µM against CDK9/cyclin T; 8.7 µM in data set [2]; 25 µM in [3]; 3.8 µM in the data set with breast carcinoma MCF7 [4]. Further, the IC50 in [5] was 9.2 µM; in data set [6] it was 9.5 µM; in [7], 23 µM; in data set [8], 13 µM. The IC50 at 72 h in [1] was over 167 µM. In addition, the “Max. β-Gal. Activtity Conc.” value in [9] turned out to be 2 µM.

`CC(C)n1cnc2c(NCc3ccccc3N)nc(N[C@H]3CC[C@H](O)CC3)nc21` [Compound 103]: the IC50 against CDK1/cyclin B is 0.2 µM; against CDK2/cyclin E it was 0.15 µM; on CDK9/cyclin T, 0.003 µM; in [2], 14 µM; in data set [3], 63 µM; in the data set with breast carcinoma MCF7 [4] it was 10.1 µM. The IC50 in data set [5] is 18 µM; in data set [6], 29.8 µM; in [7], 36 µM; in [8] it was 33 µM. Besides, the half-maximal inhibitory concentration (IC50) at 72 h in data set [1] is over 167 µM. Also, the “Max. β-Gal. Activtity Conc.” value in [9] stood at 14 µM.

As for `CCn1cnc2c(NCc3ccccc3N)nc(NC(CO)C(C)C)nc21` (stereo not shown) [Compound 64], the IC50 against CDK1/cyclin B is 0.03 µM; on CDK2/cyclin E, 0.01 µM; on CDK9/cyclin T it was 0.0009 µM; in data set [2], 0.7 µM; in data set [3], 0.9 µM; in the data set on breast carcinoma MCF7 [4], 1.3 µM. In addition, the 50% inhibitory concentration (IC50) was 1.2 µM in [5], 4.5 µM in data set [6], 2.1 µM in [7] and 1 µM in [8]. For the same compound, the IC50 at 72 h in data set [1] is over 167 µM. For the same compound, the “Max. β-Gal. Activtity Conc.” value in data set [9] is 6 µM.

Take `CCCn1cnc2c(NCc3ccccc3N)nc(NC(CC)CO)nc21` (stereo not shown) [Compound 187]: the IC50 on CDK1/cyclin B is 0.2 µM; against CDK2/cyclin E, 0.1 µM; against CDK9/cyclin T it was 0.0007 µM; in data set [2], 7.6 µM; in data set [3], 12 µM; with breast carcinoma MCF7 [4], 4.3 µM. The IC50 was 4.5 µM in [5], 16 µM in data set [6], 8.3 µM in data set [7] and 9 µM in data set [8]. In addition, the IC50 at 72 h in data set [1] was over 167 µM. Also, the “Max. β-Gal. Activtity Conc.” value in data set [9] came to 3 µM.
